# Test results from patent US20240279304A1, “DSG2 COMPOSITIONS AND METHODS” (Arvada Therapeutics, Inc., priority 2021, published 2024).
# Experiments:
# [1] = system: human iPSC cardiomyocytes; test: CiPA multielectrode array (MEA) assay, sodium spike; format: cell-based; settings: anti-DSG2 antibodies 0.5 μg/mL; lidocaine 10 μM; negative controls 0.5 g/mL as printed; 0 to 96 hours
# Description: To determine the effect of anti-DSG2 antibodies in cardiomyocytes, the cardiac in vitro proarrhythmia (CiPA) assay was performed (Sager et al. Am Heart J 2014; 167:292-300; the contents of which are herein incorporated by reference in its entirety). CiPA is envisioned to consist of four components: (1) an evaluation of the effects of test agents on cardiac ion channel assays; (2) in silico modeling of the cardiac action potential based on the ion channel results to integrate the data with cardiac function; (3) experimental measurement of test agent effects in human ventricular myocytes to confirm the modeling result; and (4) scoring the results. […] The sodium spike quantified below is a measurement of the specific sodium channel current in the cardiomyocyte and is also described in Blinova K, et al. Cell Rep. […] The parameters evaluated include measuring a change in the spike in the component of electrical signal propagation (e.g. sodium spike) and cell index—a function of cell impedance and cell number. […]
# Commercially available anti-DSG2 antibodies were tested in the cardiomyocyte CiPA assay. […] The voltage (μV) is measured at time intervals of 0, 1 hour, 12 hours, 24 hours, 48 hours, 72 hours, and 96 hours. […]
# [2] = system: human iPSC-derived cardiomyocytes; test: CiPA multielectrode array (MEA) assay, cell index; format: cell-based
# Description: To determine the effect of anti-DSG2 antibodies in cardiomyocytes, the cardiac in vitro proarrhythmia (CiPA) assay was performed (Sager et al. Am Heart J 2014; 167:292-300; the contents of which are herein incorporated by reference in its entirety). CiPA is envisioned to consist of four components: (1) an evaluation of the effects of test agents on cardiac ion channel assays; (2) in silico modeling of the cardiac action potential based on the ion channel results to integrate the data with cardiac function; (3) experimental measurement of test agent effects in human ventricular myocytes to confirm the modeling result; and (4) scoring the results. The multielectrode array (MEA) assay is a component of CiPA which uses human induced pluripotent stem cell (iPSC)-derived cardiomyocytes to evaluate two-dimensional excitation propagation by recording spontaneous ECG-like field potentials. The sodium spike quantified below is a measurement of the specific sodium channel current in the cardiomyocyte and is also described in Blinova K, et al. Cell Rep. 2018 Sep. 25; 24(13):3582-3592 (the contents of which are herein incorporated by reference in its entirety). CiPA is considered a clinically validated cardiomyocyte-based assay by the FDA and the EMA. […] The parameters evaluated include measuring a change in the spike in the component of electrical signal propagation (e.g. sodium spike) and cell index—a function of cell impedance and cell number. Changes in sodium spike may be indicative of arrhythmia and a change in cell index (CI) may be indicative of changes to cell connectivity.
# Cell index is inversely related the cell layer's conductivity to electrical current. Increased conductivity across the cell layer, may indicate that there are more gaps in the cell layer, implying that the cells are less well-adhered to each other. Thus, increased conductivity across the cell layer, may result in lower cell index. […] The concentration of anti-DSG2 antibodies varied from 0.00005 μg/mL to 5 μg/mL. […] The concentration of lidocaine varied from 3 μM to 100 μM. […] The concentration of anti-DSG2 antibodies varied from 0.00005 μg/mL to 5 μg/mL.
# [3] = molecular target: anti-DSG2 antibody; test: anti-DSG2 antibody MSD assay; inhibition of the antibody signal by the fusion polypeptide; antibody at 200 ng/mL
# [4] = molecular target: anti-DSG2 antibody; test: anti-DSG2 antibody MSD assay; inhibition of the antibody signal by the fusion polypeptide; antibody at 1000 ng/mL
% inhibition [3] [%],% inhibition [4] [%],Molecule,effect on cardiomyocyte sodium spike (in words) [1],Cell Index (+/- SEM) ([2]; 3 μM),Cell Index (+/- SEM) ([2]; 10 μM),Cell Index (+/- SEM) ([2]; 30 μM),Cell Index (+/- SEM) ([2]; 100 μM),"effect on cell index (in words) ([2]; lidocaine 3 μM to 100 μM, antibodies 0.00005 μg/mL to 5 μg/mL)"
,,"CCN(CC)CC(=O)Nc1c(C)cccc1C [Lidocaine, lidocaine]",dampen the sodium spike,19.9 (2.84),20.2 (3.1),18.7 (2.0),11.0 (4.8),marked reduction in cell index and likely cell death
63.8,88.4,"recombinant human desmoglein-2 Fc chimera protein, CF (DSG2FP#1) (Fc fusion)",,,,,,
